Laboratory results published in patent US8202886B2, “Small molecule E2F inhibitor” (H. Lee Moffitt Cancer Center and Research Institute, Inc., priority 2008, dated 2012).

test system: 8226-s, 8226-dox40 and 8226-MR20; assay: PARP cleavage western in drug sensitive and resistant 8226 lines; assay type: cell-based, human; conditions: 24 hours; 10 μM cisplatin or 10, 20 or 40 μM HLM006474
Protocol: Cells were collected 24 hours post drug exposure and extracts subjected to western blotting using antibodies to the indicated proteins. Cleavage of PARP indicates apoptosis.

With N.N.[Cl][Pt][Cl] [cisplatin, reference compound] as the compound, how does the “PARP cleavage (apoptosis) in sensitive versus resistant lines” value read?
The value was “Minimal PARP cleavage”.

test system: E2F4-deficient MEFs; assay: not given; conditions: earlier work of the inventors (Ma et al., 2004); cited from earlier work

Which “sensitivity of E2F4-deficient MEFs to other drugs” value (shortened to “sensitivity of E2F4-deficient MEFs”) does the source give for CC(C)(C)c1cnc(CSc2cnc(NC(=O)C3CCNCC3)s2)o1 [SNS-032] here?
Its value is “more sensitive”.

Which “sensitivity of E2F4-deficient MEFs” value does the source give for COc1cc([C@@H]2c3cc4c(cc3[C@@H](O[C@@H]3O[C@@H]5CO[C@@H](C)O[C@H]5[C@H](O)[C@H]3O)[C@H]3COC(=O)[C@H]23)OCO4)cc(OC)c1O [VP16, etoposide] here?
Its value is “more sensitive”.

For N.N.[Cl][Pt][Cl] [cisplatin, reference compound], which “sensitivity of E2F4-deficient MEFs” value is on record?
The value was “more sensitive”.

For CN1CC[C@H](c2c(O)cc(O)c3c(=O)cc(-c4ccccc4Cl)oc23)[C@H](O)C1 [flavopiridol], which “sensitivity of E2F4-deficient MEFs” value is on record?
The value was “more sensitive”.

For CC[C@H](CO)Nc1nc(NCc2ccccc2)c2ncn(C(C)C)c2n1 [roscovitine], which “sensitivity of E2F4-deficient MEFs” value is on record?
Its value is “more sensitive”.
